# System: HIV
# Assay: MT4 assay: antiviral HIV activity (cell protection, cell titer glo readout at 96 hours)
# Format: cell-based
# Conditions: Human immunodeficiency virus 1, MT4, 96 h, MT4 cells, cell titer glo readout at 96 hours, 10 point dose response; read-out: HIV MT4 Assay IC50
# Method: Antiviral HIV activity and cytotoxicity values for compounds of the invention from Table 1 were measured in parallel in the HTLV-1 transformed cell line MT-4 based on the method previously described (Hazen et al., 2007, In vitro antiviral activity of the novel, tyrosyl-based human immunodeficiency virus (HIV) type 1 protease inhibitor brecanavir (GW640385) in combination with other antiretrovirals and against a panel of protease inhibitor-resistant HIV (Hazen et al., “In vitro antiviral activity of the novel, tyrosyl-based human immunodeficiency virus (HIV) type 1 protease inhibitor brecanavir (GW640385) in combination with other antiretrovirals and against a panel of protease inhibitor-resistant HIV”, Antimicrob. Agents Chemother. 2007, 51: 3147-3154; and Pauwels et al., “Sensitive and rapid assay on MT-4 cells for the detection of antiviral compounds against the AIDS virus”, J. of Virological Methods 1987, 16: 171-185).
# Luciferase activity was measured 96 hours later by adding a cell titer glo (Promega, Madison, Wis.). Percent inhibition of cell protection data was plotted relative to no compound control. Under the same condition, cytotoxicity of the compounds was determined using cell titer Glo™ (Promega, Madison, Wis.). IC50s were determined from a 10 point dose response curve using 3-4-fold serial dilution for each compound, which spans a concentration range >1000 fold.
# These values are plotted against the molar compound concentrations using the standard four parameter logistic equation:
# y=((Vmax*x̂n)/(K̂n+x̂n))+Y2
# Y2=minimum y n=slope factor
# Vmax=maximum y x=compound concentration [M]
row,Structure (SMILES),IC50
1,"Cc1nc2c(cc(-c3ccnc(-c4ccc5c(cnn5C)c4)c3)n2C)c(-c2cc(F)c3c(c2C)NCCO3)c1[C@H](OC(C)(C)C)C(=O)O (atropisomer, axis not shown) [Example 3, (2S)-2-(tert-butoxy)-2-[4-(8-fluoro-5-methyl-3,4-dihydro-2H-1,4-benzoxazin-6-yl)-1,6-dimethyl-2-[2-(1-methyl-1H-indazol-5-yl)pyridin-4-yl]-1H-pyrrolo[2,3-b]pyridin-5-yl]acetic acid]",1.9 nM
2,"Cc1nc2c(cc(-c3ccnc(-c4cnc5c(cnn5C)c4)c3)n2C)c(-c2ccc3c(c2C)CCCO3)c1[C@H](OC(C)(C)C)C(=O)O (atropisomer, axis not shown) [Example 4, (2S)-2-(tert-butoxy)-2-[1,6-dimethyl-2-(2-{1-methyl-1H-pyrazolo[3,4-b]pyridin-5-yl}pyridin-4-yl)-4-(5-methyl-3,4-dihydro-2H-1-benzopyran-6-yl)-1H-pyrrolo[2,3-b]pyridin-5-yl]acetic acid]",1.6 nM
3,"Cc1nc2c(cc(-c3ccnc(-c4cccnc4)c3)n2C)c(-c2cc(F)c3c(c2C)CCCO3)c1[C@H](OC(C)(C)C)C(=O)O (atropisomer, axis not shown) [Example 6, (2S)-2-(tert-butoxy)-2-[4-(8-fluoro-5-methyl-3,4-dihydro-2H-1-benzopyran-6-yl)-1,6-dimethyl-2-[2-(pyridin-3-yl)pyridin-4-yl]-1H-pyrrolo[2,3-b]pyridin-5-yl]acetic acid]",14.8 nM
4,"Cc1nc2c(cc(-c3ccnc(-c4ccc5c(c4)CCN5C)c3)n2C)c(-c2cc(F)c3c(c2C)CCCO3)c1[C@H](OC(C)(C)C)C(=O)O (atropisomer, axis not shown) [Example 8, (2S)-2-(tert-butoxy)-2-[4-(8-fluoro-5-methyl-3,4-dihydro-2H-1-benzopyran-6-yl)-1,6-dimethyl-2-[2-(1-methyl-2,3-dihydro-1H-indol-5-yl)pyridin-4-yl]-1H-pyrrolo[2,3-b]pyridin-5-yl]acetic acid]",5.6 nM
5,"Cc1nc2c(cc(-c3ccnc(-c4cnn(C5CCOCC5)c4)c3)n2C)c(-c2cc(F)c3c(c2C)CCCO3)c1[C@H](OC(C)(C)C)C(=O)O (atropisomer, axis not shown) [Example 9, (2S)-2-(tert-butoxy)-2-[4-(8-fluoro-5-methyl-3,4-dihydro-2H-1-benzopyran-6-yl)-1,6-dimethyl-2-{2-[1-(oxan-4-yl)-1H-pyrazol-4-yl]pyridin-4-yl}-1H-pyrrolo[2,3-b]pyridin-5-yl]acetic acid]",16.2 nM
6,"Cc1nc2c(cc(-c3ccnc(N4CCN(C)CC4)c3)n2C)c(-c2cc(F)c3c(c2C)CCCO3)c1[C@H](OC(C)(C)C)C(=O)O (atropisomer, axis not shown) [Example 10, (2S)-2-(tert-butoxy)-2-[4-(8-fluoro-5-methyl-3,4-dihydro-2H-1-benzopyran-6-yl)-1,6-dimethyl-2-[2-(4-methylpiperazin-1-yl)pyridin-4-yl]-1H-pyrrolo[2,3-b]pyridin-5-yl]acetic acid]",30.3 nM
7,"Cc1nc2c(cc(C(=O)N3CCN(c4ccc5c(cnn5C)c4)CC3)n2C)c(-c2cc(F)c3c(c2C)CCCO3)c1[C@H](OC(C)(C)C)C(=O)O (atropisomer, axis not shown) [Example 11, (2S)-2-(tert-butoxy)-2-[4-(8-fluoro-5-methyl-3,4-dihydro-2H-1-benzopyran-6-yl)-1,6-dimethyl-2-{[4-(1-methyl-1H-indazol-5-yl)piperazin-1-yl]carbonyl}-1H-pyrrolo[2,3-b]pyridin-5-yl]acetic acid]",14.8 nM
8,"Cc1nc2c(cc(-c3ccc(-c4ccc5c(cnn5C)c4)nc3)n2C)c(-c2cc(F)c3c(c2C)CCCO3)c1[C@H](OC(C)(C)C)C(=O)O (atropisomer, axis not shown) [Example 18, (2S)-2-(tert-butoxy)-2-[4-(8-fluoro-5-methyl-3,4-dihydro-2H-1-benzopyran-6-yl)-1,6-dimethyl-2-[6-(1-methyl-1H-indazol-5-yl)pyridin-3-yl]-1H-pyrrolo[2,3-b]pyridin-5-yl]acetic acid]",26.3 nM
9,"Cc1nc2c(cc(-c3ccnc(N4CCN(C5COC5)CC4)c3)n2C)c(-c2cc(F)c3c(c2C)CCCO3)c1[C@H](OC(C)(C)C)C(=O)O (atropisomer, axis not shown) [Example 25, (2S)-2-(tert-butoxy)-2-[4-(8-fluoro-5-methyl-3,4-dihydro-2H-1-benzopyran-6-yl)-1,6-dimethyl-2-{2-[4-(oxetan-3-yl)piperazin-1-yl]pyridin-4-yl}-1H-pyrrolo[2,3-b]pyridin-5-yl]acetic acid]",10.6 nM
10,"Cc1nc2c(cc(-c3ccnc(-c4ccnc(N5CCN(C)CC5)c4)c3)n2C)c(-c2cc(F)c3c(c2C)CCCO3)c1[C@H](OC(C)(C)C)C(=O)O (atropisomer, axis not shown) [Example 30]",4.1 nM
11,"Cc1ccc(-c2cc(-c3cc4c(-c5cc(F)c6c(c5C)CCCO6)c([C@H](OC(C)(C)C)C(=O)O)c(C)nc4n3C)ccn2)cc1 (atropisomer, axis not shown) [Example 31]",11 nM
12,"Cc1nc2c(cc(-c3ccnc(C4=CCCCC4)c3)n2C)c(-c2cc(F)c3c(c2C)CCCO3)c1[C@H](OC(C)(C)C)C(=O)O (atropisomer, axis not shown) [Example 32]",34.5 nM
13,"Cc1nc2c(cc(-c3ccnc(-c4cnc(N(C)C)nc4)c3)n2C)c(-c2cc(F)c3c(c2C)CCCO3)c1[C@H](OC(C)(C)C)C(=O)O (atropisomer, axis not shown) [Example 33]",7.2 nM
14,"Cc1nc2c(cc(-c3ccnc(-c4ccc5nccn5c4)c3)n2C)c(-c2cc(F)c3c(c2C)CCCO3)c1[C@H](OC(C)(C)C)C(=O)O (atropisomer, axis not shown) [Example 34]",4.2 nM
15,"Cc1nc2c(cc(-c3ccnc(-c4ccc5nnn(C)c5c4)c3)n2C)c(-c2cc(F)c3c(c2C)CCCO3)c1[C@H](OC(C)(C)C)C(=O)O (atropisomer, axis not shown) [Example 35]",10.9 nM
16,"Cc1nc2c(cc(-c3ccnc(-c4cnc(O)nc4)c3)n2C)c(-c2cc(F)c3c(c2C)CCCO3)c1[C@H](OC(C)(C)C)C(=O)O (atropisomer, axis not shown) [Example 36]",8410 nM
17,"Cc1nc2c(cc(-c3ccnc(-c4ccc5c(c4)C(C)(C)CO5)c3)n2C)c(-c2cc(F)c3c(c2C)CCCO3)c1[C@H](OC(C)(C)C)C(=O)O (atropisomer, axis not shown) [Example 37]",47.4 nM
18,"Cc1nc2c(cc(-c3ccnc(C4=CCN(C)CC4)c3)n2C)c(-c2cc(F)c3c(c2C)CCCO3)c1[C@H](OC(C)(C)C)C(=O)O (atropisomer, axis not shown) [Example 38]",17.9 nM
19,"Cc1nc2c(cc(-c3ccnc(-c4ccc5ccccc5c4)c3)n2C)c(-c2cc(F)c3c(c2C)CCCO3)c1[C@H](OC(C)(C)C)C(=O)O (atropisomer, axis not shown) [Example 39]",17.3 nM
20,"Cc1nc2c(cc(-c3ccnc(-c4ccc5ncccc5c4)c3)n2C)c(-c2cc(F)c3c(c2C)CCCO3)c1[C@H](OC(C)(C)C)C(=O)O (atropisomer, axis not shown) [Example 40]",2.2 nM
21,"Cc1nc2c(cc(-c3ccnc(-c4ccc5cnn(C)c5c4)c3)n2C)c(-c2cc(F)c3c(c2C)CCCO3)c1[C@H](OC(C)(C)C)C(=O)O (atropisomer, axis not shown) [Example 41]",4.6 nM
22,"Cc1nc2c(cc(-c3ccnc(-c4ccc5c(c4C)NCCO5)c3)n2C)c(-c2cc(F)c3c(c2C)CCCO3)c1[C@H](OC(C)(C)C)C(=O)O (atropisomer, axis not shown) [Example 42]",3.2 nM
23,"Cc1noc(C)c1-c1cc(-c2cc3c(-c4cc(F)c5c(c4C)CCCO5)c([C@H](OC(C)(C)C)C(=O)O)c(C)nc3n2C)ccn1 (atropisomer, axis not shown) [Example 43]",72.9 nM
24,"Cc1nc2c(cc(-c3ccnc(-c4ccc(N5CCCC5)nc4)c3)n2C)c(-c2cc(F)c3c(c2C)CCCO3)c1[C@H](OC(C)(C)C)C(=O)O (atropisomer, axis not shown) [Example 45]",4.8 nM
25,"Cc1nc2c(cc(-c3ccnc(-c4ccncc4)c3)n2C)c(-c2cc(F)c3c(c2C)CCCO3)c1[C@H](OC(C)(C)C)C(=O)O (atropisomer, axis not shown) [Example 46]",7.8 nM
26,"Cc1nc2c(cc(-c3ccnc(-c4ccc5c(c4)CCN(C4COC4)C5)c3)n2C)c(-c2cc(F)c3c(c2C)CCCO3)c1[C@H](OC(C)(C)C)C(=O)O (atropisomer, axis not shown) [Example 47]",5.6 nM
27,"Cc1nc2c(cc(-c3ccnc(-c4ccc5c(c4)CN(C4COC4)CC5)c3)n2C)c(-c2cc(F)c3c(c2C)CCCO3)c1[C@H](OC(C)(C)C)C(=O)O (atropisomer, axis not shown) [Example 48]",4.4 nM
28,"Cc1nc2c(cc(-c3ccnc(-c4ccc(O)c(N)c4)c3)n2C)c(-c2cc(F)c3c(c2C)CCCO3)c1[C@H](OC(C)(C)C)C(=O)O (atropisomer, axis not shown) [Example 49]",114 nM
29,"Cc1nc2c(cc(-c3ccnc(-c4ccc5c(c4)NCCO5)c3)n2C)c(-c2cc(F)c3c(c2C)CCCO3)c1[C@H](OC(C)(C)C)C(=O)O (atropisomer, axis not shown) [Example 50]",8.7 nM
30,"COc1ncc(-c2cc(-c3cc4c(-c5cc(F)c6c(c5C)CCCO6)c([C@H](OC(C)(C)C)C(=O)O)c(C)nc4n3C)ccn2)cn1 (atropisomer, axis not shown) [Example 52]",13.9 nM
